In assay [1] the target is T1, Endothelin-1 receptor (Homo sapiens, UniProt P25101).
T1 sequence (P25101 whole entry): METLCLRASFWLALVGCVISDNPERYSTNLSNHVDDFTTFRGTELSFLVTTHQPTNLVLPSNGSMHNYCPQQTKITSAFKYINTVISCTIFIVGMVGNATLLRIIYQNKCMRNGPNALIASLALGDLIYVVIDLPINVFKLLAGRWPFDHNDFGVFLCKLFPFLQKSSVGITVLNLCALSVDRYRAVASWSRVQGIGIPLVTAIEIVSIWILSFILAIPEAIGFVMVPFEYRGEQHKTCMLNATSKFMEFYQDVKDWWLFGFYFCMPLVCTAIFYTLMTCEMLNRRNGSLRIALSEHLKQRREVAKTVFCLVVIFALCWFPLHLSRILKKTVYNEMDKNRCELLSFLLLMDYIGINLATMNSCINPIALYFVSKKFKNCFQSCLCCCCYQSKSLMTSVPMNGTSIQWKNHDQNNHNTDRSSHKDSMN

Assay [2] deals with T2, Alpha-2C adrenergic receptor (Homo sapiens, UniProt P18825).
T2 sequence (P18825 whole entry): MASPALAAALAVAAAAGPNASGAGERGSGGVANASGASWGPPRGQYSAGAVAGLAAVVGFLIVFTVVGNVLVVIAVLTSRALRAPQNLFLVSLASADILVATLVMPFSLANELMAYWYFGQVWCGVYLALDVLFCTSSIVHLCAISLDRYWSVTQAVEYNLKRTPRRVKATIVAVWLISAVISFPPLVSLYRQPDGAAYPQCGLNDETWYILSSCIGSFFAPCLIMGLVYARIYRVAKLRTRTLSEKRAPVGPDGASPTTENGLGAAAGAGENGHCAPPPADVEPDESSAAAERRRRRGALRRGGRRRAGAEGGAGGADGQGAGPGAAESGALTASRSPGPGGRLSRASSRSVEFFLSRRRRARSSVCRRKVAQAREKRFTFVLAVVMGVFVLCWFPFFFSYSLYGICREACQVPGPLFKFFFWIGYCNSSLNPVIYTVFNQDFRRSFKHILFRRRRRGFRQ
It is filed as functional.

Assay [3] concerns the target Beta-1 adrenergic receptor (Homo sapiens, UniProt P08588). It is filed as functional.
The target of assay [4] is T3, B2 bradykinin receptor (Homo sapiens, UniProt P30411).
T3 sequence (P30411 whole entry): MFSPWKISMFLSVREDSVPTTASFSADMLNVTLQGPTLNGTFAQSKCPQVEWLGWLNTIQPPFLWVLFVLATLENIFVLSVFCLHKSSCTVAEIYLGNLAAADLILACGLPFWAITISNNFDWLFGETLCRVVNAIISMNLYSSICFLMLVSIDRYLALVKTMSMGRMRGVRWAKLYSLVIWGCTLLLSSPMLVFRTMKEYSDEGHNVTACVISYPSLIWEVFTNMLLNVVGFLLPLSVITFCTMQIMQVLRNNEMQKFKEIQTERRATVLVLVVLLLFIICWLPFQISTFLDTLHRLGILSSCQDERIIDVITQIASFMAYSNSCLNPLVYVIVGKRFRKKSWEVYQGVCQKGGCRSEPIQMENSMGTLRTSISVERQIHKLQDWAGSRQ

Assay [5] concerns the target Voltage-dependent L-type calcium channel subunit alpha-1C (Rattus norvegicus, UniProt P22002). It is filed as functional.
Assay [6] deals with T4, Alpha-1A adrenergic receptor (Homo sapiens, UniProt P35348).
T4 sequence (P35348 whole entry): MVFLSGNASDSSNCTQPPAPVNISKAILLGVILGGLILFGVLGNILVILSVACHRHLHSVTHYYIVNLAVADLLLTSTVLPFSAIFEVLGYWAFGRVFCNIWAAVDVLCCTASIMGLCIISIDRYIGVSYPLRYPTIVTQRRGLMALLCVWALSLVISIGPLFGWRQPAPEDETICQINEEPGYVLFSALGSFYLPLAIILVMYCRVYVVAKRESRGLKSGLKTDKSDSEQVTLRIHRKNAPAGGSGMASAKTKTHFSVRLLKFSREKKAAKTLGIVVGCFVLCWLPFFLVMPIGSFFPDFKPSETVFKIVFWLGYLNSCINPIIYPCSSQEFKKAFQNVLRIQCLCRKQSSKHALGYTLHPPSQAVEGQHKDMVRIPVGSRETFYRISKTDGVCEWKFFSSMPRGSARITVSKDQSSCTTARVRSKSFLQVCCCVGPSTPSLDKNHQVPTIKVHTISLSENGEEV
Type of assay: functional, cell-based.

For assay [7], the target named is Gamma-aminobutyric acid receptor subunit alpha-1 (Rattus norvegicus, UniProt P62813). Type of assay: functional.
Assay [8] addresses T5, 5-hydroxytryptamine receptor 2C (Homo sapiens, UniProt P28335).
T5 sequence (P28335 whole entry): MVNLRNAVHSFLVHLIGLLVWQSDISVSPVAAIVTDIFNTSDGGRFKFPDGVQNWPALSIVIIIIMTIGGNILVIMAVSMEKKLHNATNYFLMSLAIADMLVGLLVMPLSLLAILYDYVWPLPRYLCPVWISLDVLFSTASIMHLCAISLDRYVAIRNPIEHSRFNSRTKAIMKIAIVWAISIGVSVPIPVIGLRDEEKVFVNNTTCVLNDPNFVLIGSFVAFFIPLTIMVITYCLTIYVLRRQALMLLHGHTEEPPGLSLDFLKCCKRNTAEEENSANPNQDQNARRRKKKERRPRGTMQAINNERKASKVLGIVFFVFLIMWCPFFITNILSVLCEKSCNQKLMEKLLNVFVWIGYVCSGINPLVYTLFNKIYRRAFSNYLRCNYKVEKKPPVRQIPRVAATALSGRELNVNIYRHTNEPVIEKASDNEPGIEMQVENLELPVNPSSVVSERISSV

For assay [9], the target named is T6, Adenosine receptor A3 (Homo sapiens, UniProt P0DMS8).
T6 sequence (P0DMS8 whole entry): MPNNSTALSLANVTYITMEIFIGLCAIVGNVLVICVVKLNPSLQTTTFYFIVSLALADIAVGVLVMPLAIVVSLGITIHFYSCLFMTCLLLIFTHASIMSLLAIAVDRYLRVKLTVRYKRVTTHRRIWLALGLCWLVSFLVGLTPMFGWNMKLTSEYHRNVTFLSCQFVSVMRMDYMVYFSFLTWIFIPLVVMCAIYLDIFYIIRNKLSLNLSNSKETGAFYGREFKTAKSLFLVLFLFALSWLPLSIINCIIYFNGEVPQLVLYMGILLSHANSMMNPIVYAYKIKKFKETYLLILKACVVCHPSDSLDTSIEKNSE

Assay [10] addresses T4, Alpha-1A adrenergic receptor. It is filed as functional, cell-based. This is another data set of the same source.
Assay [11] has as its target Cannabinoid receptor 1 (Homo sapiens, UniProt P21554). Type of assay: functional, cell-based.
For assay [12], the target named is T4, Alpha-1A adrenergic receptor. Type of assay: functional, cell-based. This is another data set of the same source.

AC50 data for 28 compounds are collected here from ChEMBL document CHEMBL5291721, “A preclinical secondary pharmacology resource illuminates target-adverse drug reaction associations of marketed drugs” (Nat Commun, 2023).

Molecules are shown by their SMILES.
Note: assay procedure not described here.

Chain of Voltage-dependent L-type calcium channel subunit alpha-1C (P22002 whole entry): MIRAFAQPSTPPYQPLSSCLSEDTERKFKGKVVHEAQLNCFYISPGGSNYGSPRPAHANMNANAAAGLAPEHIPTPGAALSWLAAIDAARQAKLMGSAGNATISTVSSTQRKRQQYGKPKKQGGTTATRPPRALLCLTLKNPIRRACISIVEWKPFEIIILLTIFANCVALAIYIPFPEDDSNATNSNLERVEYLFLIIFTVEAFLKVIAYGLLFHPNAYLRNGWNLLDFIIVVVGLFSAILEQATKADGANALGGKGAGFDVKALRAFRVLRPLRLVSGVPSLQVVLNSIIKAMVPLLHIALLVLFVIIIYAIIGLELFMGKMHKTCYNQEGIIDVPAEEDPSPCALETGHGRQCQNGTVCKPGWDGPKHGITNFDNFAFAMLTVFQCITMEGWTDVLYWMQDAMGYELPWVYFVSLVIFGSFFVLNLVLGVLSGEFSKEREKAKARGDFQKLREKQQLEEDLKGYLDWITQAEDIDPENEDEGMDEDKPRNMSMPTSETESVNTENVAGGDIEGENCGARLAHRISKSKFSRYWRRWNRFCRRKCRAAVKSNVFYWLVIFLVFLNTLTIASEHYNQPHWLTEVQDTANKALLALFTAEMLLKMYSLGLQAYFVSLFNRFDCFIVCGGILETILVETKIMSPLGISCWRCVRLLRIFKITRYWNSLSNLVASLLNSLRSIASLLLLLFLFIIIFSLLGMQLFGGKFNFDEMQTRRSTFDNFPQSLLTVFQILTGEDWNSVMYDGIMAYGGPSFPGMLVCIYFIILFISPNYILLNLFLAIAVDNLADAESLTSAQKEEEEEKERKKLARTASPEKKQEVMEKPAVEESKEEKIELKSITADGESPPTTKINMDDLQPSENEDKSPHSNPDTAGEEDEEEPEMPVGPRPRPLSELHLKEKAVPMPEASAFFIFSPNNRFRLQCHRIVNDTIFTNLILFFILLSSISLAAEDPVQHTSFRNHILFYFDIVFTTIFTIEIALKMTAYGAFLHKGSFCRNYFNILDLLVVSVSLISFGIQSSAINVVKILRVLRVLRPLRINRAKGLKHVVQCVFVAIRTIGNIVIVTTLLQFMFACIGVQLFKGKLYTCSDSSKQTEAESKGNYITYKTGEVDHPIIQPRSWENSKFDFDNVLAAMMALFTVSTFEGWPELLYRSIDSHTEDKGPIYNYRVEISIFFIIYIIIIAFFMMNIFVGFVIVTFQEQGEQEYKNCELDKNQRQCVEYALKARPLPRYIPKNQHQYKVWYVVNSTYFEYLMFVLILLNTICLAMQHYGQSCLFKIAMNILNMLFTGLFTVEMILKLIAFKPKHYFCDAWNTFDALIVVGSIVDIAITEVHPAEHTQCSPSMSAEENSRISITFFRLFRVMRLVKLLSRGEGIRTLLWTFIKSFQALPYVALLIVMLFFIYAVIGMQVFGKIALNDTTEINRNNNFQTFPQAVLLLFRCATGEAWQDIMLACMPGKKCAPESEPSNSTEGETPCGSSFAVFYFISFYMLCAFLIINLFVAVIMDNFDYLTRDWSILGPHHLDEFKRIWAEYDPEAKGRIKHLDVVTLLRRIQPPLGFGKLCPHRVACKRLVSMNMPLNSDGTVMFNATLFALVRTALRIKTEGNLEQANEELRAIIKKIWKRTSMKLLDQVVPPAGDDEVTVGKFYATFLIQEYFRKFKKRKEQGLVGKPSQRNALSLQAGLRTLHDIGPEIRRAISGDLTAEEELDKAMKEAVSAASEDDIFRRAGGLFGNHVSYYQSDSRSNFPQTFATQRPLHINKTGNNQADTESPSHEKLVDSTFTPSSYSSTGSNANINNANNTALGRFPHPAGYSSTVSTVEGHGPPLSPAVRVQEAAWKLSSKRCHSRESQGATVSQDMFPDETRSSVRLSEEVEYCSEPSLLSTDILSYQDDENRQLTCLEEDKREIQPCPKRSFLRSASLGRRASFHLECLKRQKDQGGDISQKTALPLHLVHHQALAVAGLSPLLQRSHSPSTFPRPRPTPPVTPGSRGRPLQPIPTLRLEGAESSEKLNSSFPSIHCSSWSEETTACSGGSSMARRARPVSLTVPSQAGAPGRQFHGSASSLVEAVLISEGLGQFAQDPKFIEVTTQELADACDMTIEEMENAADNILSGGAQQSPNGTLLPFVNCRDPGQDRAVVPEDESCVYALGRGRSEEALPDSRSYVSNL
Chain of Beta-1 adrenergic receptor (P08588 whole entry): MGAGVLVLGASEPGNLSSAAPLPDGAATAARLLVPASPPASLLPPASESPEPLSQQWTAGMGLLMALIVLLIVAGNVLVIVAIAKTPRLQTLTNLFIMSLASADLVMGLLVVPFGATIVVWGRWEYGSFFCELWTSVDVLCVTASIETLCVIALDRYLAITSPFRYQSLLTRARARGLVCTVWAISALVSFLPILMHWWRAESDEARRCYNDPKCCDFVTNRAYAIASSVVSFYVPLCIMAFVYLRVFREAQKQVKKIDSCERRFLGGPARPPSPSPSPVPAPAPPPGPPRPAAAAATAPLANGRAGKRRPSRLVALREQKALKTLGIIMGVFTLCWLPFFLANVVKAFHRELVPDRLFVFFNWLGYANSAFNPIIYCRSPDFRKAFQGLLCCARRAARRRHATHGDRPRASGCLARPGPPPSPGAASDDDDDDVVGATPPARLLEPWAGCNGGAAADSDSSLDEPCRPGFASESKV
Chain of Gamma-aminobutyric acid receptor subunit alpha-1 (P62813 whole entry): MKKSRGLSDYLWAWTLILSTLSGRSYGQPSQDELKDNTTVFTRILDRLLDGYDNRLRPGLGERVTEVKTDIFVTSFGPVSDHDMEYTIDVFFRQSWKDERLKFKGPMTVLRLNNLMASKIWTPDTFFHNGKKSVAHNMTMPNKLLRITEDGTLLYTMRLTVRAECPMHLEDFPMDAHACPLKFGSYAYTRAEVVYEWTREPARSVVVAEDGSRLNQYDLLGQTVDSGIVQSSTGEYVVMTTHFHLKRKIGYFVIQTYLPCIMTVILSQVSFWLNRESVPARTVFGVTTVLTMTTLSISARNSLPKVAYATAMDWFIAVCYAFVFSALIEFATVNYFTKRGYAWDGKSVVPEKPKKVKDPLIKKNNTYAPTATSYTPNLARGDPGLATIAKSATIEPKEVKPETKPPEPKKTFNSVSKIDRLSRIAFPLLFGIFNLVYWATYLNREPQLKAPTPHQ
Chain of Cannabinoid receptor 1 (P21554 whole entry): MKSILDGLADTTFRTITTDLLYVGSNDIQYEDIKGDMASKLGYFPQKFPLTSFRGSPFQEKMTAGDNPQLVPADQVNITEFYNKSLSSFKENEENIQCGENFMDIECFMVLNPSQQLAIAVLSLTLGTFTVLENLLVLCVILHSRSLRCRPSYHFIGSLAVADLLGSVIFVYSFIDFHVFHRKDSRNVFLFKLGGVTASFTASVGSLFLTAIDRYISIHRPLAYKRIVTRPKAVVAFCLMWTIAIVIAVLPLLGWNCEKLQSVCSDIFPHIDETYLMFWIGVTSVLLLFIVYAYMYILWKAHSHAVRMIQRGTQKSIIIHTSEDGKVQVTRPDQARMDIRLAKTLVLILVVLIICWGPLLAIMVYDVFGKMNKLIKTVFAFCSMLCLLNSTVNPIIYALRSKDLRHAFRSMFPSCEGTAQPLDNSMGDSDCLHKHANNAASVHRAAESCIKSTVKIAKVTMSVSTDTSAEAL

In general, AC50 refers to the concentration giving half of the maximal activity seen. In the case of `CCCN(CCC)C(=O)Cc1c(-c2ccc(Cl)cc2)nc2ccc(Cl)cn12` [ALPIDEM], the AC50 was > 10 µM in assay [1]; > 30 µM in assay [2]; > 30 µM in assay [3]; > 30 µM in assay [4]; > 30 µM in assay [5]; > 30 µM in [6]. Also, the AC50 in assay [7] is 43.1 nM; in [8] it was > 30 µM; in assay [9], 11.5 µM.
With `COc1cc2nccc(Oc3ccc(NC(=O)C4(C(=O)Nc5ccc(F)cc5)CC4)cc3)c2cc1OC` [CABOZANTINIB], the AC50 in assay [1] was > 30 µM; in assay [2] it was 26 µM; in assay [3], > 30 µM; in assay [6] it was > 30 µM; in assay [7], > 30000 nM; in [10] it was > 30 µM. Besides, the AC50 is > 30 µM in assay [8], > 30 µM in assay [11], > 30 µM in assay [12] and 3.7 µM in assay [9].
In the case of `CC(C)Cc1ccc(C(C)C(=O)O)cc1` (stereo not given) [IBUPROFEN], the AC50 is > 30 µM in assay [1]; > 10 µM in assay [2]; > 10 µM in assay [3]; > 30 µM in assay [4]; > 10 µM in assay [5]; > 30 µM in [6]. The AC50 was > 10000 nM in assay [7]; > 30 µM in assay [10]; > 30 µM in assay [8]; > 30 µM in assay [11]; > 30 µM in assay [12]; > 30 µM in [9].
For the compound `O=C1/C(=C2\Nc3ccc(S(=O)(=O)O)cc3C2=O)Nc2ccc(S(=O)(=O)O)cc21` [INDIGOTINDISULFONATE], in assay [6], the AC50 was > 30 µM.
Regarding `OC[C@H]1O[C@@H](c2ccc(F)c(Cc3cc4ccccc4s3)c2)[C@H](O)[C@@H](O)[C@@H]1O` [IPRAGLIFLOZIN], the AC50 in assay [6] was > 30 µM.
On to `CC(C)C[C@H](NC(=O)CNC(=O)c1cc(Cl)ccc1Cl)B(O)O` [IXAZOMIB], for which the AC50 in [6] was > 30 µM.
Same read-out and setting: under `C=CCN1CC[C@]23CCCC[C@H]2[C@H]1Cc1ccc(O)cc13` [LEVALLORPHAN] stands > 30 µM; under `C[N+](C)(C)C[C@H](O)CC(=O)[O-]` [LEVOCARNITINE], > 30 µM; under `CN1CCCCC1CCN1c2ccccc2Sc2ccc([S+](C)[O-])cc21` (stereo not given) [MESORIDAZINE], > 30 µM.
Turning to `C[C@@H]1C[C@H]2[C@@H]3CCC4=CC(=O)C=C[C@]4(C)[C@@]3(Cl)[C@@H](O)C[C@]2(C)[C@@]1(OC(=O)c1ccco1)C(=O)CCl` [MOMETASONE FUROATE], the AC50 in [6] is > 30 µM.
Still for that read-out and setting: the figure for `Cc1ccccc1C(=O)Nc1ccc(C(=O)N2CCCC(N(C)C)c3ccccc32)cc1` (stereo not given) [MOZAVAPTAN] is > 30 µM.
As for `CC(=O)O[C@]1(C(C)=O)CC[C@H]2[C@@H]3C=C(C)C4=CC(=O)CC[C@@H]4[C@H]3CC[C@@]21C` [NOMEGESTROL ACETATE], the AC50 is > 30 µM in assay [2]; > 30 µM in assay [3]; > 30 µM in assay [6]; 2500 nM in assay [7]; > 30 µM in [10]; > 30 µM in assay [8]. Besides, the AC50 in assay [11], in assay [12] and in assay [9] was > 30 µM each time.
In the case of `O=C(O)c1cc(/N=N/c2ccc(O)c(C(=O)O)c2)ccc1O` [OLSALAZINE], the AC50 in assay [6] is > 30 µM.
As to `CCOC(=O)C1=C[C@@H](OC(CC)CC)[C@H](NC(C)=O)[C@@H](N)C1` [OSELTAMIVIR], the AC50 in assay [6] is > 30 µM.
With `Cc1onc(-c2ccccc2)c1C(=O)N[C@@H]1C(=O)N2[C@@H]1SC(C)(C)[C@@H]2C(=O)O` [OXACILLIN], the AC50 in assay [6] is > 30 µM.
Take `CCn1cc(C(=O)O)c(=O)c2cc3c(cc21)OCO3` [OXOLINIC ACID]: the AC50 in assay [6] is > 30 µM.
The same measure, in the same setting: the figure for `FC(F)(F)c1ccc(CNc2ccc(Cc3c[nH]c4ncc(Cl)cc34)cn2)cn1` [PEXIDARTINIB] is > 30 µM; for `Nc1ccc(C(=O)Oc2ccccc2)c(O)c1` [PHENYL AMINOSALICYLATE] it is > 30 µM.
As to `CN1CCC(=C2c3ccccc3Sc3ccccc32)CC1` [PIMETHIXENE], in [6], the AC50 was > 30 µM.
Still for that read-out and setting: under `[H]/N=C(\N/C(=N/[H])Nc1ccc(Cl)cc1)NC(C)C` [PROGUANIL] stands > 30 µM; under `CC(CN1CC(=O)NC(=O)C1)N1CC(=O)NC(=O)C1` (stereo not given) [RAZOXANE], > 30 µM; under `N[C@@H](CO)C(=O)O` [SERINE], > 30 µM.
On the same count and under the same terms, under `CC(C)OC(=O)CCC/C=C\C[C@@H]1[C@@H](/C=C/C(F)(F)COc2ccccc2)[C@H](O)C[C@@H]1O` [TAFLUPROST] stands > 30 µM.
Same read-out and setting: the figure for `C[C@]1(Cn2ccnn2)[C@H](C(=O)O)N2C(=O)C[C@H]2S1(=O)=O` [TAZOBACTAM] is > 30 µM; for `CC[C@H]1OC(=O)[C@H](C)C(=O)[C@H](C)[C@@H](O[C@@H]2O[C@H](C)C[C@H](N(C)C)[C@H]2O)[C@](C)(OC)C[C@@H](C)C(=O)[C@H](C)[C@H]2N(CCCCn3cnc(-c4cccnc4)c3)C(=O)O[C@]12C` [TELITHROMYCIN] it is > 30 µM; for `CC1=C(/C=C/C(C)=C/C=C/C(C)=C/C(=O)O)C(C)(C)CCC1` [TRETINOIN] it is > 30 µM.
Regarding `CC(=O)Oc1cc(C(F)(F)F)ccc1C(=O)O` [TRIFLUSAL], the AC50 in assay [6] is > 30 µM.
Consider `Cc1onc(-c2ccccc2)c1-c1ccc(S(N)(=O)=O)cc1` [VALDECOXIB], for which the AC50 in assay [1] is > 30 µM; in assay [2], > 10 µM; in assay [3], 8.32 µM; in assay [4] it was > 30 µM; in assay [5], > 10 µM; in [6] it was > 30 µM. The AC50 is > 10000 nM in assay [7]; > 30 µM in assay [10]; > 30 µM in [8]; > 30 µM in assay [11]; > 30 µM in assay [12]; > 30 µM in assay [9].
